# In patent US11053196B2, “Substituted indoline derivatives as dengue viral replication inhibitors” (JANSSEN PHARMACEUTICALS, INC., priority 2017, dated 2021):
# Assays:
# [1] = test system: DENV-2 16681 strain; assay: DENV-2 antiviral assay (eGFP-labeled virus in Vero cells); format: cell-based, Dengue virus; settings: DENV-2 16681 eGFP, MOI 0.5, 3 days
# Method: The antiviral activity of all the compounds of the invention was tested against the DENV-2 16681 strain which was labeled with enhanced green fluorescent protein (eGPF). The culture medium consists of minimal essential medium supplemented with 2% of heat-inactivated fetal calf serum, 0.04% gentamycin (50 mg/mL) and 2 mM of L-glutamine. Vero cells, obtained from ECACC, were suspended in culture medium and 25 μL was added to 384-well plates (2500 cells/well), which already contain the antiviral compounds. Typically, these plates contain a 5-fold serial dilution of 9 dilution steps of the test compound at 200 times the final concentration in 100% DMSO (200 nL). […] Finally, each plate contains wells which are assigned as virus controls (containing cells and virus in the absence of compound), cell controls (containing cells in the absence of virus and compound) and medium controls (containing medium in the absence of cells, virus and compounds). To the wells assigned as medium control, 25 μL of culture medium was added instead of Vero cells. Once the cells are added to the plates, the plates were incubated for 30 minutes at room temperature to allow the cells to distribute evenly within the wells. Next, the plates were incubated in a fully humidified incubator (37° C., 5% CO2) until the next day. Then, DENV-2 strain 16681, labeled with eGFP, was added at a multiplicity of infection (MOI) of 0.5.
# Therefore, 15 μL of virus suspension was added to all the wells containing test compound and to the wells assigned as virus control. In parallel, 15 μL of culture medium was added to the medium and cell controls. Next, the plates were incubated for 3 days in a fully humidified incubator (37° C., 5% CO2). At the day of the read out, the eGFP fluorescence was measured using an automated fluorescence microscope at 488 nm (blue laser). Using an in-house LIMS system, inhibition dose response curves for each compound were calculated and the half maximal effective concentration (EC50) was determined. Therefore, the percent inhibition (I) for every test concentration is calculated using the following formula: I=100*(ST−SCC)/(SVC−SCC); ST, SCC and SVC are the amount of eGFP signal in the test compound, cell control and virus control wells, respectively. The EC50 represents the concentration of a compound at which the virus replication is inhibited with 50%, as measured by a 50% reduction of the eGFP fluorescent intensity compared to the virus control. The EC50 is calculated using linear interpolation (Table 1).
# [2] = in vitro; settings: African green monkey
# [3] = Dengue virus, DENV2, Vero, 72 h
SMILES,"EC50 [1, 3] [µM]",CC50 [2] [µM],EC50 [1] [µM]
"COc1cc(NC(C(=O)N2CCc3c(C)cc(C(F)(F)F)cc32)c2ccc(Cl)cc2)cc(OCCCC(=O)O)c1 (racemic) [Compound 2, 4-(3-((1-(4-chlorophenyl)-2-(4-methyl-6-(trifluoromethyl)indolin-1-yl)-2-oxoethyl)amino)-5-methoxyphenoxy)butanoic acid]",0.00038,12,
"COc1cc(NC(C(=O)N2CCc3ccc(S(F)(F)(F)(F)F)cc32)c2ccc(Cl)cc2)cc(OCCCC(=O)O)c1 (single isomer, unassigned) [Compound 1A, 4-(3-((1-(4-chlorophenyl)-2-oxo-2-(6-(pentafluoro-λ^6-sulfanyl)indolin-1-yl)ethyl)amino)-5-methoxyphenoxy)butanoic acid]",,12,0.0013
"COc1cc(NC(C(=O)N2CCc3cc(F)c(C(F)(F)F)cc32)c2ccc(Cl)cc2)cc(OCCCC(=O)O)c1 (racemic) [Compound 3, 4-(3-((1-(4-chlorophenyl)-2-(5-fluoro-6-(trifluoromethyl)indolin-1-yl)-2-oxoethyl)amino)-5-methoxyphenoxy)butanoic acid]",0.00056,13,
"COc1cc(NC(C(=O)N2CCc3ccc(SC(F)(F)F)cc32)c2ccc(Cl)cc2)cc(OCCCC(=O)O)c1 (racemic) [Compound 11, 4-(3-((1-(4-chlorophenyl)-2-oxo-2-(6-((trifluoromethyl)thio)indolin-1-yl)ethyl)amino)-5-methoxyphenoxy)butanoic acid]",0.00028,13,
"COc1cc(NC(C(=O)N2CCc3c(C)cc(C(F)(F)F)cc32)c2ccc(Cl)cc2)cc(OCCCC(=O)O)c1 (single isomer, unassigned) [Compound 2A, 4-(3-((1-(4-chlorophenyl)-2-(4-methyl-6-(trifluoromethyl)indolin-1-yl)-2-oxoethyl)amino)-5-methoxyphenoxy)butanoic acid]",,12,0.015
"COc1cc(NC(C(=O)N2CCc3ccc(S(F)(F)(F)(F)F)cc32)c2ccc(Cl)cc2)cc(OCCCC(=O)O)c1 (racemic) [Compound 1, 4-(3-((1-(4-chlorophenyl)-2-oxo-2-(6-(pentafluoro-λ^6-sulfanyl)indolin-1-yl)ethyl)amino)-5-methoxyphenoxy)butanoic acid]",0.00064,13,
"COc1cc(NC(C(=O)N2CCc3cc(F)c(OC(F)(F)F)cc32)c2ccc(Cl)cc2)cc(OCCCC(=O)O)c1 (racemic) [Compound 5, 4-(3-((1-(4-chlorophenyl)-2-(5-fluoro-6-(trifluoromethoxy)indolin-1-yl)-2-oxoethyl)amino)-5-methoxyphenoxy)butanoic acid]",0.00011,10,
"COc1cc(NC(C(=O)N2CCc3ccc(OC(F)(F)F)cc32)c2ccc(F)cc2OC)cc(OCCCC(=O)O)c1 (single isomer, unassigned) [Compound 6A, 4-(3-((1-(4-fluoro-2-methoxyphenyl)-2-oxo-2-(6-(trifluoromethoxy)indolin-1-yl)ethyl)amino)-5-methoxyphenoxy)butanoic acid]",,11,0.25
"COc1cc(NC(C(=O)N2CCc3ccc(OC(F)(F)F)cc32)c2ccc(Cl)cc2OCCO)cc(OCCCC(=O)O)c1 (racemic) [Compound 8, 4-(3-((1-(4-chloro-2-(2-hydroxyethoxy)phenyl)-2-oxo-2-(6-(trifluoromethoxy)indolin-1-yl)ethyl)amino)-5-methoxyphenoxy)butanoic acid]",0.00015,13,
"COc1cc(NC(C(=O)N2CCc3cc(F)c(OC(F)(F)F)cc32)c2ccc(Cl)cc2)cc(OCCCC(=O)O)c1 (single isomer, unassigned) [Compound 5A, 4-(3-((1-(4-chlorophenyl)-2-(5-fluoro-6-(trifluoromethoxy)indolin-1-yl)-2-oxoethyl)amino)-5-methoxyphenoxy)butanoic acid]",,10,0.0023
